Data as given in ChEMBL document CHEMBL5506059, “Cyanomethylquinolones as a New Class of Potential Multitargeting Broad-Spectrum Antibacterial Agents” (J Med Chem, 2024).
Values after ≈ are worked out from the molar mass of the structure shown. Active and inactive are the calls of the source. The calls are words filed in the database; no cut-off is given here.

Key:
Staphylococcus aureus [1] = test: Antibacterial activity against methicillin resistant Staphylococcus aureus clinical isolate assessed as inhibition of bacterial growth incubated for 24 hrs; type: functional
Staphylococcus aureus [2] = test: Antibacterial activity against Staphylococcus aureus clinical isolate assessed as inhibition of bacterial growth incubated for 24 hrs; type: functional
Staphylococcus aureus [3] = test: Antibacterial activity against Staphylococcus aureus ATCC 25923 assessed as inhibition of bacterial growth incubated for 24 hrs; type: functional
Staphylococcus aureus [4] = test: Antibacterial activity against Staphylococcus aureus ATCC 29213 assessed as inhibition of bacterial growth incubated for 24 hrs; type: functional
Enterococcus faecalis [5] = test: Antibacterial activity against Enterococcus faecalis clinical isolate assessed as inhibition of bacterial growth incubated for 24 hrs; type: functional
Klebsiella pneumoniae = test: Antibacterial activity against Klebsiella pneumoniae clinical isolate assessed as inhibition of bacterial growth incubated for 24 hrs; type: functional
Escherichia coli [6] = test: Antibacterial activity against Escherichia coli clinical isolate assessed as inhibition of bacterial growth incubated for 24 hrs; type: functional
Escherichia coli [7] = test: Antibacterial activity against Escherichia coli ATCC 25922 assessed as inhibition of bacterial growth incubated for 24 hrs; type: functional
Pseudomonas aeruginosa [8] = test: Antibacterial activity against Pseudomonas aeruginosa clinical isolate assessed as inhibition of bacterial growth incubated for 24 hrs; type: functional
Pseudomonas aeruginosa [9] = test: Antibacterial activity against Pseudomonas aeruginosa ATCC 27853 assessed as inhibition of bacterial growth incubated for 24 hrs; type: functional
Acinetobacter baumannii = test: Antibacterial activity against Acinetobacter baumannii clinical isolate assessed as inhibition of bacterial growth incubated for 24 hrs; type: functional
Streptococcus pneumoniae = test: Antibacterial activity against Streptococcus pneumoniae ATCC 6305 assessed as inhibition of bacterial growth incubated for 24 hrs; type: functional
Streptococcus pyogenes = test: Antibacterial activity against Streptococcus pyogenes ATCC 19615 assessed as inhibition of bacterial growth incubated for 24 hrs; type: functional
[10] = system: Staphylococcus epidermidis; test: Antibacterial activity against Staphylococcus epidermidis ATCC 12228 assessed as inhibition of bacterial growth incubated for 24 hrs; type: functional
Staphylococcus aureus [11] = test: Antibacterial activity against methicillin-resistant Staphylococcus aureus ATCC 43300 assessed as inhibition of bacterial growth incubated for 24 hrs; type: functional
Staphylococcus aureus [12] = test: Antibacterial activity against Staphylococcus aureus ATCC 12600 assessed as inhibition of bacterial growth incubated for 24 hrs; type: functional
Staphylococcus aureus [13] = test: Antibacterial activity against Staphylococcus aureus ATCC 6538 assessed as inhibition of bacterial growth incubated for 24 hrs; type: functional
Staphylococcus aureus [14] = test: Antibacterial activity against Staphylococcus aureus CMCC(B)26003 assessed as inhibition of bacterial growth incubated for 24 hrs; type: functional
Staphylococcus aureus [15] = test: Antibacterial activity against Staphylococcus aureus CMCC(B)26001 assessed as inhibition of bacterial growth incubated for 24 hrs; type: functional
Enterococcus faecium = test: Antibacterial activity against Enterococcus faecium ATCC 19434 assessed as inhibition of bacterial growth incubated for 24 hrs; type: functional
Enterococcus faecalis [16] = test: Antibacterial activity against vancomycin-resistant Enterococcus faecalis clinical isolate p1-2007226001 assessed as inhibition of bacterial growth incubated for 24 hrs; type: functional
Enterococcus faecalis [17] = test: Antibacterial activity against vancomycin-resistant Enterococcus faecalis clinical isolate p1-2007225053 assessed as inhibition of bacterial growth incubated for 24 hrs; type: functional
Staphylococcus aureus [18] = test: Antibacterial activity against methicillin resistant Staphylococcus aureus clinical isolate assessed as inhibition of bacterial growth at 1 times MIC incubated under dark condition and measured upto 5 hrs relative to control; type: functional
Erythrocyte = test: Hemolytic activity in human Red blood cells assessed as concentration required for 5% hemolysis measured after 1.5 hrs by absorbance based assay; type: toxicity, cell-based
[19] = Hemolytic activity in human Red blood cells at 256 ug/ml measured after 1.5 hrs by absorbance based assay relative to control; type: toxicity, cell-based, Erythrocyte; conditions: red blood cells (erythrocytes), at 256 µg/mL, read-out: Activity
Staphylococcus aureus [20] = test: Resistance development in methicillin resistant Staphylococcus aureus assessed as increase in MIC measured after 20 days; type: functional, organism-based; conditions: time 20.0 day
Pseudomonas aeruginosa [21] = test: Resistance development in Pseudomonas aeruginosa assessed as increase in MIC measured after 20 days; type: functional, organism-based; conditions: time 20.0 day
Staphylococcus aureus [22] = test: Antibiofilm activity in methicillin resistant Staphylococcus aureus assessed as biofilm eradication measured after 24 hrs by crystal violet staining based analysis; type: functional, organism-based; conditions: dose 1-2 µg/ml
Pseudomonas aeruginosa [23] = test: Antibiofilm activity in Pseudomonas aeruginosa assessed as biofilm eradication measured after 24 hrs by crystal violet staining based analysis; type: functional, organism-based; conditions: dose 1-2 µg/ml
Pseudomonas aeruginosa [24] = test: Induction of intracellular ROS generation in Pseudomonas aeruginosa assessed as increase in fluorescence intensity at 2 ug/ml incubated for 6 hrs by DCFH-DA dye based fluorescence analysis; type: functional, organism-based; conditions: dose 2.0 µg/ml
Pseudomonas aeruginosa [25] = test: Induction of intracellular ROS generation in Pseudomonas aeruginosa assessed as increase in fluorescence intensity at 2 ug/ml incubated for 6 hrs in presence of N-acetyl-L-cysteine by DCFH-DA dye based fluorescence analysis; type: functional, organism-based; conditions: dose 2.0 µg/ml
Staphylococcus aureus [26] = test: Antibacterial activity against methicillin resistant Staphylococcus aureus assessed as reduction in metabolic activity by measuring reduction in fluorescence intensity at 0.5 to 2 times MIC incubated for 6 hrs by alamar blue assay; type: functional, organism-based
Pseudomonas aeruginosa [27] = test: Antibacterial activity against Pseudomonas aeruginosa assessed as reduction in metabolic activity by measuring reduction in fluorescence intensity at 0.5 to 2 times MIC incubated for 6 hrs by alamar blue assay; type: functional, organism-based
Calf thymus DNA [28] = test: Binding affinity to calf thymus DNA assessed as DNA-compound complex formation by measuring increase in absorption of DNA at 260 nm at 0 to 3.3 x 10^-8mol/L by UV absorption spectra based analysis; type: nucleic-acid assay; conditions: Bos taurus; dose 0-3.3 10^-8mol/L
Calf thymus DNA [29] = test: Binding affinity to calf thymus DNA assessed as disruption of DNA confirmation by measuring blue shift at 0 to 3.3x10^-8mol/L by UV absorption spectra based analysis; type: nucleic-acid assay; conditions: Bos taurus; dose 0-3.3 10^-8mol/L
Calf thymus DNA [30] = test: Binding affinity to calf thymus DNA assessed as DNA-compound complex formation by measuring hyperchromism at 0 to 3.3 x 10^-8mol/L by UV absorption spectra based analysis; type: nucleic-acid assay; conditions: Bos taurus; dose 0-3.3 10^-8mol/L
Calf thymus DNA [31] = test: Competitive binding affinity to calf thymus DNA assessed as displacement of neutral red from DNA-neutral red complex by measuring reduction in absorbance at 540 nm at 0 to 2.9x10^-8 mol/L by UV absorption spectroscopy; type: nucleic-acid assay; conditions: Bos taurus; dose 0-2.9 10^-8mol/L
Escherichia coli [32] = test: Potency index, ratio of norfloxacin MIC to test compound MIC for antibacterial activity against Escherichia coli ATCC 25922 assessed as inhibition of bacterial growth incubated for 24 hrs; type: functional
Escherichia coli [33] = test: Potency index, ratio of ciprofloxacin MIC to test compound MIC for antibacterial activity against Escherichia coli ATCC 25922 assessed as inhibition of bacterial growth incubated for 24 hrs; type: functional

## C#CCn1cc(C(=O)O)c(=O)c2cc(F)c(CC#N)cc21
Staphylococcus aureus [1]
  MIC: 0.5 µg/mL (≈ 1.76 µM)
Staphylococcus aureus [2]
  MIC: 256 µg/mL (≈ 901 µM)
Staphylococcus aureus [3]
  MIC: 0.25 µg/mL (≈ 0.88 µM)
Staphylococcus aureus [4]
  MIC: 1 µg/mL (≈ 3.52 µM)
Enterococcus faecalis [5]
  MIC: 1 µg/mL (≈ 3.52 µM)
Klebsiella pneumoniae
  MIC: 2 µg/mL (≈ 7.04 µM)
Escherichia coli [6]
  MIC: 1 µg/mL (≈ 3.52 µM)
Escherichia coli [7]
  MIC: 0.5 µg/mL (≈ 1.76 µM)
Pseudomonas aeruginosa [8]
  MIC: 0.25 µg/mL (≈ 0.88 µM)
Pseudomonas aeruginosa [9]
  MIC: 1 µg/mL (≈ 3.52 µM)
Acinetobacter baumannii
  MIC: 0.5 µg/mL (≈ 1.76 µM)
Streptococcus pneumoniae
  MIC: 32 µg/mL (≈ 113 µM)
Streptococcus pyogenes
  MIC: 1 µg/mL (≈ 3.52 µM)
[10]
  MIC: 4 µg/mL (≈ 14.1 µM)
Staphylococcus aureus [11]
  MIC: 4 µg/mL (≈ 14.1 µM)
Staphylococcus aureus [12]
  MIC: 16 µg/mL (≈ 56.3 µM)
Staphylococcus aureus [13]
  MIC: 2 µg/mL (≈ 7.04 µM)
Staphylococcus aureus [14]
  MIC: 2 µg/mL (≈ 7.04 µM)
Staphylococcus aureus [15]
  MIC: 4 µg/mL (≈ 14.1 µM)
Enterococcus faecium
  MIC: 4 µg/mL (≈ 14.1 µM)
Enterococcus faecalis [16]
  MIC: 16 µg/mL (≈ 56.3 µM)
Enterococcus faecalis [17]
  MIC: 8 µg/mL (≈ 28.1 µM)
Staphylococcus aureus [18]
  inhibition (INH): ~100%
Erythrocyte
  HC5: > 10000 µg/mL
[19]
  hemolysis at 1.5 h, 256 ug/ml: < 1%
Staphylococcus aureus [20]
  Activity: inactive
Pseudomonas aeruginosa [21]
  Activity: inactive
Staphylococcus aureus [22]
  Activity: Dose-Dependent Effect
Pseudomonas aeruginosa [23]
  Activity: Dose-Dependent Effect
Pseudomonas aeruginosa [24]
  Activity: Active
Pseudomonas aeruginosa [25]
  Activity: inactive
Staphylococcus aureus [26]
  Activity: Active
Pseudomonas aeruginosa [27]
  Activity: Active
Calf thymus DNA [28]
  Activity: Active
Calf thymus DNA [29]
  Activity: Active
Calf thymus DNA [30]
  Activity: Active
Calf thymus DNA [31]
  Activity: Active

## C[C@H]1COc2c(CC(=O)O)c(F)cc3c(=O)c(C(=O)O)cn1c23
Staphylococcus aureus [1]
  MIC: 1 µg/mL (≈ 3.11 µM)
Staphylococcus aureus [2]
  MIC: 16 µg/mL (≈ 49.8 µM)
Staphylococcus aureus [3]
  MIC: 32 µg/mL (≈ 99.6 µM)
Staphylococcus aureus [4]
  MIC: 1 µg/mL (≈ 3.11 µM)
Enterococcus faecalis [5]
  MIC: 1 µg/mL (≈ 3.11 µM)
Klebsiella pneumoniae
  MIC: 8 µg/mL (≈ 24.9 µM)
Escherichia coli [6]
  MIC: 0.5 µg/mL (≈ 1.56 µM)
Escherichia coli [7]
  MIC: 0.25 µg/mL (≈ 0.778 µM)
Pseudomonas aeruginosa [8]
  MIC: 0.5 µg/mL (≈ 1.56 µM)
Pseudomonas aeruginosa [9]
  MIC: 0.5 µg/mL (≈ 1.56 µM)
Acinetobacter baumannii
  MIC: 1 µg/mL (≈ 3.11 µM)
Escherichia coli [32]
  Ratio: 16
Escherichia coli [33]
  Ratio: 2
